This note sets out measurements from PubChem BioAssay AID292 (DTP/NCI, 2004).

Several values for one entry are separate records, joined by “and”; a condition that tells them apart may be missing. Equal values may be shown once. Toxic doses and inconclusive results are not listed.

The subject of this test is B6C3F1 mice, ip Sarcoma M5076, median survival T/C. Put plainly: NCI In Vivo Anticancer Drug Screen. Data for tumor model Sarcoma M5076 (intraperitoneal) in B6C3F1 mice. Particulars: endpoint: median survival time, schedule: Q04DX004 (ip), higher = longer survival. The gist of the method: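 Survival measured in treated (T) and vehicle control (C) mice with transplantable tumour; result given as T divided by C.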

[1] abbreviates: dose: 50.0 mg/kg/injection, vehicle: Klucel (hydroxypropylcellulose) (HPC).
The mark [2] stands for this setting: dose: 100.0 mg/kg/injection, vehicle: Klucel (hydroxypropylcellulose) (HPC).
Where [3] appears, read: dose: 200.0 mg/kg/injection, vehicle: Klucel (hydroxypropylcellulose) (HPC).
Where [4] appears, read: dose: 400.0 mg/kg/injection, vehicle: Klucel (hydroxypropylcellulose) (HPC).
Setting [5] is: dose: 6.25 mg/kg/injection, vehicle: Klucel (hydroxypropylcellulose) (HPC).
Setting [6] is: dose: 25.0 mg/kg/injection, vehicle: Klucel (hydroxypropylcellulose) (HPC).
The mark [7] stands for this setting: dose: 50.0 mg/kg/injection, vehicle: saline.
Setting [8] is: dose: 100.0 mg/kg/injection, vehicle: saline.
Setting [9] is: dose: 200.0 mg/kg/injection, vehicle: saline.
[10] abbreviates: dose: 50.0 mg/kg/injection, vehicle: saline with Tween-80.
[11] abbreviates: dose: 100.0 mg/kg/injection, vehicle: saline with Tween-80.
Where [12] appears, read: dose: 200.0 mg/kg/injection, vehicle: saline with Tween-80.

On to `CCC(=O)[O][Bi]([c]1ccccc1)[c]1ccccc1`, for which the T/C is, setting by setting: (dose: 3.0 mg/kg/injection, vehicle: Klucel (hydroxypropylcellulose) (HPC)) 101 % of control; (dose: 6.0 mg/kg/injection, vehicle: Klucel (hydroxypropylcellulose) (HPC)) 98 % of control; (dose: 12.0 mg/kg/injection, vehicle: Klucel (hydroxypropylcellulose) (HPC)) 102 % of control; (dose: 24.0 mg/kg/injection, vehicle: Klucel (hydroxypropylcellulose) (HPC)) 89 % of control.
Consider `COc1cc(NCc2ccc3nc(N)nc(N)c3c2C)cc(OC)c1OC` (tested in a mixture with another compound), for which the T/C (dose: 10.0 mg/kg/injection, vehicle: water) is 108 % of control; the T/C (dose: 20.0 mg/kg/injection, vehicle: water) is 112 % of control; the T/C (dose: 40.0 mg/kg/injection, vehicle: water) was 117 % of control; the T/C (dose: 80.0 mg/kg/injection, vehicle: water) is 115 % of control.
For the compound `NC(N)=NS(=O)(=O)c1ccc(NCc2c3ccccc3nc3ccccc23)cc1`, the T/C runs as follows: under setting [1], 159 % of control; under setting [2], 151 % of control; under setting [3], 178 % of control; under setting [4], 158 % of control and 207 % of control; (dose: 800.0 mg/kg/injection, vehicle: Klucel (hydroxypropylcellulose) (HPC)) 167 % of control and 194 % of control.
On to `CN=C(NC)c1ccc(NC(=O)/C=C\c2ccc(/C=C/C(=O)Nc3ccc(C(=NC)NC)cc3)cc2)cc1`, for which the T/C (dose: 3.12 mg/kg/injection, vehicle: Klucel (hydroxypropylcellulose) (HPC)) is 124 % of control; the T/C (dose: 3.75 mg/kg/injection, vehicle: Klucel (hydroxypropylcellulose) (HPC)) was 116 % of control; the T/C under setting [5] is 115 % of control; the T/C (dose: 10.42 mg/kg/injection, vehicle: Klucel (hydroxypropylcellulose) (HPC)) is 164 % of control; the T/C (dose: 17.37 mg/kg/injection, vehicle: Klucel (hydroxypropylcellulose) (HPC)) was 105 % of control.
On to `CCOC(=O)Nc1cc(NC(C)/C(=N/O)c2ccccc2)c([N+](=O)[O-])c(N)n1` (stereo unspecified), for which the T/C under setting [1] was 99 % of control and 100 % of control; the T/C under setting [2] was 109 % of control and 123 % of control; the T/C (dose: 172.8 mg/kg/injection, vehicle: Klucel (hydroxypropylcellulose) (HPC)) is 107 % of control; the T/C (dose: 288.0 mg/kg/injection, vehicle: Klucel (hydroxypropylcellulose) (HPC)) was 119 % of control; the T/C under setting [4] is 156 % of control; the T/C (dose: 13333.3 mg/kg/injection, vehicle: Klucel (hydroxypropylcellulose) (HPC)) is 119 % of control.
For the compound `CCN(CC)CCOC(=O)c1c(C)oc2cc3c(C(=O)OCCN(CC)CC)c(C)oc3cc12`, the T/C under setting [6] was 105 % of control; the T/C under setting [1] was 99 % of control; the T/C under setting [2] is 109 % of control; the T/C under setting [3] was 104 % of control; the T/C under setting [4] is 106 % of control.
`COc1cc2c(c(OC)c1OC)-c1cccc(=O)cc1C(NC(C)=O)CC2` (stereo unspecified): the T/C is, setting by setting: (dose: 3.15 mg/kg/injection, vehicle: Klucel (hydroxypropylcellulose) (HPC)) 98 % of control; under setting [5], 113 % of control; (dose: 12.5 mg/kg/injection, vehicle: Klucel (hydroxypropylcellulose) (HPC)) 107 % of control; under setting [6], 116 % of control and 117 % of control; (dose: 36.0 mg/kg/injection, vehicle: Klucel (hydroxypropylcellulose) (HPC)) 114 % of control; under setting [1], 115 % of control. The T/C is 113 % of control (dose: 60.0 mg/kg/injection, vehicle: Klucel (hydroxypropylcellulose) (HPC)); 110 % of control and 121 % of control under setting [2]; 107 % of control (dose: 166.67 mg/kg/injection, vehicle: Klucel (hydroxypropylcellulose) (HPC)); 111 % of control (dose: 277.78 mg/kg/injection, vehicle: Klucel (hydroxypropylcellulose) (HPC)).
On to `COc1nc2cc3c(cc2n2cccc12)oc1ccccc13`, for which the T/C (dose: 0.38 mg/kg/injection, vehicle: saline with Tween-80) is 92 % of control and the T/C (dose: 0.75 mg/kg/injection, vehicle: saline with Tween-80) is 89 % of control.
In the case of `COc1ccc(C=C(C(=O)CCN(C)C)C(=O)CCN(C)C)cc1`, the T/C by setting is: (dose: 25.0 mg/kg/injection, vehicle: saline) 99 % of control; under setting [7], 101 % of control; under setting [8], 102 % of control; under setting [9], 102 % of control.
For the compound `O=c1[nH]cnc2c1nnn2C1OC(CO)C(O)C1O` (stereo unspecified), the T/C under setting [7] is 105 % of control; the T/C (dose: 50.0 mg/kg/injection, vehicle: suspension in saline) was 97 % of control; the T/C under setting [8] was 93 % of control; the T/C (dose: 100.0 mg/kg/injection, vehicle: suspension in saline) was 94 % of control; the T/C under setting [9] is 112 % of control; the T/C (dose: 200.0 mg/kg/injection, vehicle: suspension in saline) was 98 % of control. The T/C reads like this: (dose: 400.0 mg/kg/injection, vehicle: saline) 101 % of control; (dose: 400.0 mg/kg/injection, vehicle: suspension in saline) 96 % of control; (dose: 800.0 mg/kg/injection, vehicle: saline) 103 % of control; (dose: 800.0 mg/kg/injection, vehicle: suspension in saline) 96 % of control.
Consider `CCc1ccccc1N1CCN(C(=O)c2cc(OC)c(OC)c(OC)c2)CC1`, for which the T/C under setting [6] is 111 % of control, the T/C under setting [1] was 112 % of control and the T/C under setting [2] was 122 % of control.
`Cn1c(-c2ccc(/C=N\N3CCN(/N=C/c4ccc(-c5c[n+]6ccsc6n5C)cc4)CC3)cc2)c[n+]2ccsc12`: the T/C reads like this: (dose: 1.5 mg/kg/injection, vehicle: saline with Tween-80) 109 % of control; (dose: 3.0 mg/kg/injection, vehicle: saline with Tween-80) 104 % of control; (dose: 6.0 mg/kg/injection, vehicle: saline with Tween-80) 101 % of control.
As to `Nc1ccc2ccc(NS(=O)(=O)N3CCCCC3)cc2c1`, the T/C was 100 % of control under setting [10]; 107 % of control under setting [11]; 112 % of control under setting [12]; 120 % of control (dose: 400.0 mg/kg/injection, vehicle: saline with Tween-80).
In the case of `COC(=O)c1cc(=O)c2c(ccc3oc(=O)ccc32)[nH]1`, the T/C (dose: 12.5 mg/kg/injection, vehicle: saline with Tween-80) was 104 % of control; the T/C (dose: 25.0 mg/kg/injection, vehicle: saline with Tween-80) is 96 % of control; the T/C under setting [10] is 92 % of control; the T/C under setting [11] is 89 % of control; the T/C under setting [12] was 89 % of control.
Take `N#CC1C(=O)NC(=O)C(C#N)C1C1C(=O)NC2CCCCC21` (stereo unspecified): the T/C (dose: 43.75 mg/kg/injection, vehicle: saline with Tween-80) was 93 % of control; the T/C (dose: 87.5 mg/kg/injection, vehicle: saline with Tween-80) is 100 % of control; the T/C (dose: 175.0 mg/kg/injection, vehicle: saline with Tween-80) was 95 % of control; the T/C (dose: 350.0 mg/kg/injection, vehicle: saline with Tween-80) is 95 % of control.
Take `COc1cc2c(c3c1c(=O)c1cccc(F)c1n3C)C=CC(C)(C)O2`: the T/C was 112 % of control under setting [1] and 120 % of control under setting [2].
